Laboratory results: patent US20160303112A1 (Laguna Pharmaceuticals, Inc., priority 2013, published 2016)

How the values were obtained:
[1] = system: cardiac arrhythmia; assay: Conversion to normal sinus rhythm in individual patients (Example 2); type: in vivo, human; conditions: second patient, supraventricular tachycardia, 200 mg + 200 mg
Experimental: Accordingly a further dose was required and administered to the patient. […] Wherein the patient is instructed to utilize a monitoring device with instructions on pricking the finger and providing a blood sample, for testing of the blood. Wherein the plasma concentration has not met at least 60 ng/ml, the second dose is to be taken to ensure that the patient achieves suitable plasma concentrations and converts to normal sinus rhythm.

[2] = system: "pure" atrial flutter; assay: Conversion of Atrial Flutter (Example 6); type: in vivo, human; conditions: any time within 24 hours, N 4
Experimental: The vanoxerine or identical appearing placebo was randomly assigned and administered in a double-blinded fashion. Definition of “pure” atrial flutter: only Atrial Flutter (no AF) seen at −30, −15, and 0 time points. Conversion at any time within 24 hours.

[3] = Plasma concentrations after a single 300 mg dose of vanoxerine in 25 patients (Example 1); type: in vivo, human; conditions: low concentration group
Experimental: Each patient gave samples before administration of their dose, and then again at nine further time points, 30 minutes after administration, 1, 2, 3, 4, 6, 8, 12, and 24 hours post administration.

[4] = Adverse events in the placebo-controlled study (Example 6); type: in vivo, human
Source text: The vanoxerine or identical appearing placebo was randomly assigned and administered in a double-blinded fashion.

[5] = Daily doses for 14 days in fourteen healthy patients (Example 4); type: in vivo, human; conditions: 25, 75 and 125 mg daily for 14 days
Experimental: A standardized meal was served 15 minutes prior to each dosing.

[6] = Plasma concentration of vanoxerine in individual arrhythmia patients (Example 2); type: in vivo, human
[7] = human, in vivo, 50 mg
Source text: The results are listed below in Table 7.

[8] = healthy subjects; cited from earlier work
[9] = first patient, atrial fibrillation, 200 mg
[10] = second patient, supraventricular tachycardia, first 200 mg dose
[11] = third patient, premature ventricular contractions, 200 mg

In the case of Fc1ccc(C(OCCN2CCN(CCCc3ccccc3)CC2)c2ccc(F)cc2)cc1 [Vanoxerine, 1-[2-[bis(4-fluorophenyl)methoxy]ethyl]-4-(3-phenylpropyl)piperazine], the “time of conversion to normal sinus rhythm post administration of the first dose” value [1] is reported as “about 6 hours”, the “Conversion of Atrial Flutter” value ([2]; 200 mg) is reported as 50% and the “Conversion of Atrial Flutter” value ([2]; 300 mg) is reported as 75%. For the same molecule, the “Conversion of Atrial Flutter” value ([2]; 400 mg) was 75%, the “Highest plasma level at any time point” value [3] was roughly 40 ng/mL and the “number of AEs reported” value ([4]; 200 mg (22)) was “reporting 8 AEs”. The “number of SAE” value ([4]; 200 mg (22)) was “(1 SAE)”, the “number of AEs reported” value ([4]; 300 mg (25)) was “reporting 12 AEs” and the “number of AEs reported” value ([4]; 400 mg (25)) was 23 AEs. The “number of SAE” value ([4]; 400 mg (25)) was “(1 SAE)”, the proarrhythmia ([4]; 200, 300, 400 mg) was “absence of proarrhythmia” and the tolerability ([4]; all doses (200, 300, 400 mg)) was “well tolerated”. For the same molecule, the serious adverse events ([4]; one at 200 mg, one at 400 mg, neither related to the study drug) was “only two serious adverse events”, the “steady state serum levels versus dose” value [5] was “disproportionately and statistically greater levels at higher doses” and the “maximum concentration in the plasma” value [6, 9] was “about 70 ng/ml”. The “time of maximum concentration post administration” value [6, 9] was 60 min, the concentration at 180 minutes ([6]; human, plasma, second patient, 180 minutes after first dose, further 200 mg given at 120 minutes) was 60 ng/mL and the “maximum concentration in the plasma” value [6, 10] was “about 20 ng/ml”. For the same molecule, the “time of maximum concentration post administration” value [6, 10] was 60 min, the “maximum concentration in the plasma” value [6, 11] was “about 150 ng/ml” and the “time of maximum concentration post administration” value [6, 11] was 60 min. For the same molecule, the TMax [7] was “TMax 1.27 +− 0.5 hr (0.5-2.0)” and the serum concentrations [8] was “unexpected fluctuations in serum concentrations”.
